Laboratory results: US20070275984A1, “Novel Thieno-Pyridine and Thieno-Pyrimidine Derivatives and Their Use as Positive Allosteric Modulators of Mglur2-Receptors” (JANSSEN PHARMACEUTICA N.V., priority 2004, published 2007)

Row | Structure (SMILES) | melting point [°C]
1 | COc1ccc(CCNc2ncnc3sc(C)cc23)cc1 [Compound 27, N-(4-methoxyphenethyl)-6-methylthieno[2,3-d]pyrimidin-4-amine] | 199
2 | CCc1nc(NCCc2ccc(OC)cc2)c2cc(C)sc2n1 [Compound 29, N-(4-methoxyphenethyl)-2-ethyl-6-methylthieno[2,3-d]pyrimidin-4-amine] | 82
3 | CCOc1ccc(CCNc2nc(C)nc3sc(C)cc23)cc1 [Compound 30, N-(4-ethoxyphenethyl)-2,6-dimethylthieno[2,3-d]pyrimidin-4-amine] | 101 to 103
4 | COc1cc(CCNc2nc(C)nc3sc(C)cc23)ccc1O [Compound 31, 4-(2-(2,6-dimethylthieno[2,3-d]pyrimidin-4-ylamino)ethyl)-2-methoxyphenol] | 135
5 | COc1ccc(CCNc2nc(C)nc3sc(C)cc23)cc1OC [Compound 33, N-(3,4-dimethoxyphenethyl)-2,6-dimethylthieno[2,3-d]pyrimidin-4-amine] | 85
6 | CCc1nc(NCCc2ccc(OC)c(OC)c2)c2cc(C)sc2n1 [Compound 34, N-(3,4-dimethoxyphenethyl)-2-ethyl-6-methylthieno[2,3-d]pyrimidin-4-amine] | 105
7 | COc1cc(CCNc2nc(C)nc3sc(C)cc23)cc(OC)c1 [Compound 35, N-(3,5-dimethoxyphenethyl)-2,6-dimethylthieno[2,3-d]pyrimidin-4-amine] | 106 to 107
8 | Cc1nc(NCCc2ccc(Cl)cc2)c2cc(C)sc2n1 [Compound 38, N-(4-chlorophenethyl)-2,6-dimethylthieno[2,3-d]pyrimidin-4-amine] | 129
9 | Cc1nc(NCCc2ccc(F)cc2)c2cc(C)sc2n1 [Compound 41, N-(4-fluorophenethyl)-2,6-dimethylthieno[2,3-d]pyrimidin-4-amine] | 117.2
10 | Cc1nc(NCCc2ccc(S(C)(=O)=O)cc2)c2cc(C)sc2n1 [Compound 44, N-(4-(methylsulfonyl)phenethyl)-2,6-dimethylthieno[2,3-d]pyrimidin-4-amine] | 176 to 179.5
11 | Cc1nc(NCCOc2ccccc2)c2cc(C)sc2n1 [Compound 47, 2,6-dimethyl-N-(2-phenoxyethyl)thieno[2,3-d]pyrimidin-4-amine] | 156.5
12 | Cc1nc(NCCc2ccccn2)c2cc(C)sc2n1 [Compound 48, 2,6-dimethyl-N-(2-(pyridin-2-yl)ethyl)thieno[2,3-d]pyrimidin-4-amine] | 139
13 | Cc1nc(NCCc2cccs2)c2cc(C)sc2n1 [Compound 50, 2,6-dimethyl-N-(2-(thiophen-2-yl)ethyl)thieno[2,3-d]pyrimidin-4-amine] | 102.5 to 103.7
14 | COc1ccc(CCN(C)c2nc(C)nc3sc(C)cc23)cc1 [Compound 51, N-(4-methoxyphenethyl)-N,2,6-trimethylthieno[2,3-d]pyrimidin-4-amine] | 81
15 | Cc1nc(NCC(C)c2ccccc2)c2cc(C)sc2n1 (centres unmarked) [Compound 52, 2,6-dimethyl-N-(2-phenylpropyl)thieno[2,3-d]pyrimidin-4-amine] | 94
16 | Cc1nc(NCC(O)c2ccccc2)c2cc(C)sc2n1 (centres unmarked) [Compound 53, 2-(2,6-dimethylthieno[2,3-d]pyrimidin-4-ylamino)-1-phenylethanol] | 117
17 | Cc1nc(NCCCCc2ccccc2)c2cc(C)sc2n1 [Compound 54, 2,6-dimethyl-N-(4-phenylbutyl)thieno[2,3-d]pyrimidin-4-amine] | 108
18 | COc1cccc(CCCNc2nc(C)nc3sc(C)cc23)c1 [Compound 55, N-(3-(3-methoxyphenyl)propyl)-2,6-dimethylthieno[2,3-d]pyrimidin-4-amine] | 122
19 | COc1ccc(CCCNc2nc(C)nc3sc(C)cc23)cc1 [Compound 56, N-(3-(4-methoxyphenyl)propyl)-2,6-dimethylthieno[2,3-d]pyrimidin-4-amine] | 120
20 | COCCCNc1nc(C)nc2sc(C)cc12 [Compound 57, N-(3-methoxypropyl)-2,6-dimethylthieno[2,3-d]pyrimidin-4-amine] | 90
21 | COc1cccc(CNc2nc(C)nc3sc(Cc4ccccc4)cc23)c1 [Compound 60, N-(3-methoxybenzyl)-6-benzyl-2-methylthieno[2,3-d]pyrimidin-4-amine] | 107
22 | CN(C)C(=O)c1cc2c(NCCc3ccccc3)ncnc2s1 [Compound 62, N,N-dimethyl-4-(phenethylamino)thieno[2,3-d]pyrimidine-6-carboxamide] | 157

Row | Structure (SMILES) | melting point [°C]
23 | CCc1cc2c(NCc3ccccc3)ncnc2s1 [Compound 64, N-benzyl-6-ethylthieno[2,3-d]pyrimidin-4-amine] | 133
24 | CCc1cc2c(NCc3cccc(OC)c3)ncnc2s1 [Compound 65, N-(3-methoxybenzyl)-6-ethylthieno[2,3-d]pyrimidin-4-amine] | 99
25 | CCc1cc2c(NCc3ccc(F)cc3)ncnc2s1 [Compound 66, N-(4-fluorobenzyl)-6-ethylthieno[2,3-d]pyrimidin-4-amine] | 104
26 | CCc1cc2c(NCCc3ccccc3)ncnc2s1 [Compound 68, 6-ethyl-N-phenethylthieno[2,3-d]pyrimidin-4-amine] | 118
27 | CCc1cc2c(NCCc3cccc(OC)c3)ncnc2s1 [Compound 69, N-(3-methoxyphenethyl)-6-ethylthieno[2,3-d]pyrimidin-4-amine] | 81
28 | CCc1cc2c(NCCc3ccc(OC)cc3)ncnc2s1 [Compound 70, N-(4-methoxyphenethyl)-6-ethylthieno[2,3-d]pyrimidin-4-amine] | 133
29 | CCc1cc2c(NCCc3ccc(OC)cc3)nc(C)nc2s1 [Compound 71, N-(4-methoxyphenethyl)-6-ethyl-2-methylthieno[2,3-d]pyrimidin-4-amine] | 102
30 | CCc1cc2c(NCCc3ccc(OC)c(OC)c3)ncnc2s1 [Compound 72, N-(3,4-dimethoxyphenethyl)-6-ethylthieno[2,3-d]pyrimidin-4-amine] | 124
31 | CCc1cc2c(NCCc3ccc(OC)c(OC)c3)nc(C)nc2s1 [Compound 73, N-(3,4-dimethoxyphenethyl)-6-ethyl-2-methylthieno[2,3-d]pyrimidin-4-amine] | 78
32 | CCCc1cc2c(NCc3cccc(OC)c3)ncnc2s1 [Compound 77, N-(3-methoxybenzyl)-6-propylthieno[2,3-d]pyrimidin-4-amine] | 118
33 | CCCc1cc2c(NCCc3ccccc3)nc(NC)nc2s1 [Compound 81, N2-methyl-N4-phenethyl-6-propylthieno[2,3-d]pyrimidine-2,4-diamine] | 162
34 | CCCc1cc2c(NCCc3ccc(O)cc3)nc(OC)nc2s1 [Compound 83, 4-(2-(2-methoxy-6-propylthieno[2,3-d]pyrimidin-4-ylamino)ethyl)phenol] | 79
35 | CCCc1cc2c(NCCc3ccc(O)cc3)nc(Cl)nc2s1 [Compound 84, 4-(2-(2-chloro-6-propylthieno[2,3-d]pyrimidin-4-ylamino)ethyl)phenol] | 135
36 | CCCc1cc2c(NCCc3ccc(OC)cc3)ncnc2s1 [Compound 85, N-(4-methoxyphenethyl)-6-propylthieno[2,3-d]pyrimidin-4-amine] | 102
37 | CCCc1cc2c(NCCc3ccc(OC)cc3)nc(OC)nc2s1 [Compound 86, N-(4-methoxyphenethyl)-2-methoxy-6-propylthieno[2,3-d]pyrimidin-4-amine] | 92
38 | CCCc1cc2c(NCCc3ccc(OC)c(OC)c3)ncnc2s1 [Compound 87, N-(3,4-dimethoxyphenethyl)-6-propylthieno[2,3-d]pyrimidin-4-amine] | 128.5
39 | CCCc1cc2c(NCCc3ccc(OCc4nnn[nH]4)cc3)nc(OC)nc2s1 [Compound 88, N-(4-((1H-tetrazol-5-yl)methoxy)phenethyl)-2-methoxy-6-propylthieno[2,3-d]pyrimidin-4-amine] | 181
40 | CCCc1cc2c(NCCNc3ccccc3)ncnc2s1 [Compound 89, N-(2-(phenylamino)ethyl)-6-propylthieno[2,3-d]pyrimidin-4-amine] | 68
41 | COc1cccc(CNc2ncnc3sc(C(C)C)cc23)c1 [Compound 91, N-(3-methoxybenzyl)-6-isopropylthieno[2,3-d]pyrimidin-4-amine] | 65
42 | CC(C)c1cc2c(NCCc3ccccc3)ncnc2s1 [Compound 92, 6-isopropyl-N-phenethylthieno[2,3-d]pyrimidin-4-amine] | 117.5
43 | COc1ccc(CCNc2ncnc3sc(C(C)C)cc23)cc1 [Compound 93, N-(4-methoxyphenethyl)-6-isopropylthieno[2,3-d]pyrimidin-4-amine] | 108.5
44 | CCCCc1cc2c(NCCc3ccccc3)ncnc2s1 [Compound 94, 6-butyl-N-phenethylthieno[2,3-d]pyrimidin-4-amine] | 95
